Here are results for 76 compounds from the RepoRT retention time repository (doi:10.1016/j.scitotenv.2015.08.078).

This series can be described thus: RP, Waters ACQUITY UPLC BEH C18, 100 × 2.1 mm, 1.7 µm, 0.3 mL/min, estimated dead time 0.73 min; A: water + 0.1% formic acid, pH 3; B: methanol + 0.1% formic acid, pH 3; gradient (min/%B) 0/10 14/90 16/90 18/10. Conditions: stereoisomer not certain.
Consider `CC(C)c1ccc(NC(=O)N(C)C)cc1` [Isoproturon], for which the LC retention time is 9.6 min.
On to `CCOC(=O)NCCOc1ccc(Oc2ccccc2)cc1` [Fenoxycarb], for which the LC retention time was 12.4 min.
`CCC(C(=O)O)C1OC(C(C)C(O)C(C)C(=O)C(CC)C2OC3(C=CC(O)C4(CCC(C)(C5CCC(O)(CC)C(C)O5)O4)O3)C(C)CC2C)C(C)CC1C` (stereo unspecified) [Narasin]: the LC retention time was 16.5 min.
Then `Cn1c([N+](=O)[O-])cnc1CO` [HMMNI (Hydroxy Dimetridazole)], with 2.23 min.
Take `C[Si](Cn1cncn1)(c1ccc(F)cc1)c1ccc(F)cc1` [Flusilazole]: the LC retention time was 11.4 min.
As to `Clc1ccc(CSC(Cn2cncn2)=Nc2ccc(Cl)cc2Cl)cc1` [Imibenconazole], the LC retention time is 13 min.
Consider `Cc1cccc(C)c1NC1=NCCCS1` [Xylazine], for which the LC retention time was 4.92 min.
`CNC(=O)Oc1cccc2c1OC(C)(C)C2` [Carbofuran]: the LC retention time is 8.15 min.
On to `Cc1c(NC=O)c(=O)n(-c2ccccc2)n1C` [4-formylamino-Antipyrine], for which the LC retention time was 3.78 min.
As to `Cc1c(Nc2ncccc2C(=O)O)cccc1C(F)(F)F` [Flunixin], the LC retention time was 9.31 min.
For the compound `O=C(O)c1ccccc1C(=O)Nc1cccc2ccccc12` [Naptalam], the LC retention time was 6.59 min.
In the case of `Cn1cc(-c2ccccc2)c(=O)c(-c2cccc(C(F)(F)F)c2)c1` [Fluridone], the LC retention time was 9.63 min.
As to `CC1(C)C(C(=O)OC(C#N)c2cccc(Oc3ccccc3)c2)C1(C)C` (stereo unspecified) [Fenpropathrin], the LC retention time is 13.7 min.
As for `CC(C)NCC(O)COc1ccc(CC(N)=O)cc1` (stereo unspecified) [Atenolol], the LC retention time is 8.74 min.
In the case of `COc1ccc(C(O)(c2cncnc2)C2CC2)cc1` (stereo unspecified) [Ancymidol], the LC retention time is 7.72 min.
Turning to `CCc1nc(N)nc(N)c1-c1ccc(Cl)cc1` [Pyrimethamine], the LC retention time is 7.2 min.
Turning to `CCN(CC)C(=O)SCc1ccccc1Cl` [Orbencarb], the LC retention time is 11.9 min.
With `COC(=O)c1sccc1S(=O)(=O)NC(=O)Nc1nc(C)nc(OC)n1` [Thifensulfuron methyl], the LC retention time was 5.04 min.
Regarding `CN(C)c1ccc(C(c2ccccc2)c2ccc(N(C)C)cc2)cc1` [Leucomalachite green], the LC retention time was 10.4 min.
As to `Nc1ccc(S(=O)(=O)NC(=O)c2ccccc2)cc1` [Sulfabenzamide], the LC retention time is 3 min.
For the compound `CCCC(Cn1cncn1)c1ccc(Cl)cc1Cl` (stereo unspecified) [Penconazole], the LC retention time was 11.6 min.
With `COC(=O)C=C(C)OP(=O)(OC)OC` [Mevinphos trans], the LC retention time was 4.95 min.
As to `CC(=O)Nc1c(C)n(C)n(-c2ccccc2)c1=O` [4-Acetylamino-Antipyrine], the LC retention time is 3.87 min.
In the case of `CCCCCc1cc(O)c2c(c1)OC(C)(C)C1CC(O)C(C)=CC21` (stereo unspecified) [OH-THC], the LC retention time was 13.9 min.
Turning to `COC(=O)Nc1cccc(OC(=O)Nc2cccc(C)c2)c1` [Phenmedipham], the LC retention time is 9.52 min.
`Cc1onc(-c2c(Cl)cccc2Cl)c1C(=O)NC1C(=O)N2C1SC(C)(C)C2C(=O)O` (stereo unspecified) [Dicloxacillin]: the LC retention time was 10.4 min.
On to `C#CC(C)(C)NC(=O)c1cc(Cl)cc(Cl)c1` [Propyzamide], for which the LC retention time was 10.3 min.
The result for `NC(C(=O)NC1C(=O)N2C(C(=O)O)=C(Cl)CSC12)c1ccccc1` (stereo unspecified) [Cefaclor] reads 4.02 min; that for `CN(CC=CC#CC(C)(C)C)Cc1cccc2ccccc12` [Terbinafine], 13.7 min; that for `CC1=C(C(=O)Nc2ccccc2)SCCO1` [Carboxin], 7.77 min.
For the compound `O=C(NC(=O)c1c(F)cccc1F)Nc1cc(Cl)c(F)c(Cl)c1F` [Teflubenzuron], the LC retention time is 13 min.
With `CC(C)N(C(=O)CCl)c1ccccc1` [Propachlor], the LC retention time was 8.99 min.
`CCCCOC(=O)N(C)SN(C)C(=O)Oc1cccc2c1OC(C)(C)C2` [Furathiocarb]: the LC retention time is 12.8 min.
With `CCCCC1=NC2(CCCC2)C(=O)N1Cc1ccc(-c2ccccc2-c2nn[nH]n2)cc1` [Irbesartan], the LC retention time was 10.4 min.
The result for `CC(Cc1ccc(C(C)(C)C)cc1)CN1CC(C)OC(C)C1` (stereo unspecified) [Fenpropimorph] reads 14.1 min; that for `CON=C(C(=O)OC)c1ccccc1COc1ccccc1C` [Kresoxim-methyl], 11.7 min; that for `N#Cc1nn(-c2c(Cl)cc(C(F)(F)F)cc2Cl)c(N)c1S(=O)C(F)(F)F` (stereo unspecified) [Fipronil], 11.3 min.
Then `CCOP(=O)(Sc1ccccc1)Sc1ccccc1` [Edifenphos], with 11.7 min; and `CNc1cnn(-c2cccc(C(F)(F)F)c2)c(=O)c1Cl` [Norflurazon], with 9.22 min; and `CN1CCN(c2c(F)cc3c(=O)c(C(=O)O)cn4c3c2OCN4C)CC1` [Marbofloxacin], with 2.84 min.
In the case of `CC(Oc1ccc(Oc2nc3ccc(Cl)cc3o2)cc1)C(=O)O` (stereo unspecified) [Fenoxaprop], the LC retention time was 11.6 min.
For `CN(C)CCC(c1ccc(Cl)cc1)c1ccccn1` (stereo unspecified) [Chlorpheniramine], the LC retention time was 7.27 min.
Regarding `CCC1OC(=O)C(C)C(OC2CC(C)(OC)C(O)C(C)O2)C(C)C(OC2OC(C)CC(N(C)C)C2O)C(C)(O)CC(C)CN(C)C(C)C(O)C1(C)O` (stereo unspecified) [Azithromycin], the LC retention time is 6.2 min.
`[O-][n+]1nc(-n2ccnc2)nc2ccc(Cl)cc21` [Triazoxide]: the LC retention time was 8.54 min.
The result for `CNC(=O)Oc1cc(C)cc(C(C)C)c1` [Promecarb] reads 10.3 min; that for `COc1cc(OC)n2nc(S(=O)(=O)Nc3c(Cl)ccc(C)c3Cl)nc2n1` [Metosulam], 7.54 min.
Take `CC1(C)OC2CC3C4CCC5=CC(=O)C=CC5(C)C4(F)C(O)CC3(C)C2(C(=O)CO)O1` (stereo unspecified) [Triamcinolone acetonide]: the LC retention time was 9.42 min.
As to `CCNC(=O)NC(=O)C(C#N)=NOC` [Cymoxanil], the LC retention time is 5.24 min.
Turning to `O=C1CCc2cccc3c2N1CC3` [Pyroquilon], the LC retention time is 7.09 min.
Then `O=C(NC(=O)c1c(F)cccc1F)Nc1ccc(CON=C(c2ccc(Cl)cc2)C2CC2)cc1` [Flucycloxuron], with 13.4 min; and `CCOc1ccc(C(C)(C)COCc2cccc(Oc3ccccc3)c2)cc1` [Ethofenprox], with 15.1 min; and `COc1cc2c(c3oc(=O)c4c(c13)CCOC4=O)C1C=COC1O2` (stereo unspecified) [Aflatoxin G1], with 7.15 min.
In the case of `CC1CC2C(C(O)CC3(C)C2CCC3(O)C(=O)CO)C2(C)C=CC(=O)C=C12` (stereo unspecified) [6a-Methylprednisolone], the LC retention time was 9.42 min.
For the compound `CCCCC(CC)COC(=O)CCCCC(=O)OCC(CC)CCCC` (stereo unspecified) [Bis-(2-ethylhexyl) adipate], the LC retention time is 15.3 min.
Consider `COC(=O)C(C)N(C(=O)c1ccco1)c1c(C)cccc1C` (stereo unspecified) [Furalaxyl], for which the LC retention time was 10 min.
In the case of `CCCSC(=O)N(CCC)CCC` [Vernolat], the LC retention time is 12.2 min.
Regarding `CCNc1nc(NC(C)C)nc(SC)n1` [Ametryn], the LC retention time is 9.9 min.
The result for `CN(C)C1C(=O)C(C(N)=O)=C(O)C2(O)C(=O)C3=C(O)c4c(O)cccc4C(C)(O)C3CC12` (stereo unspecified) [Tetracycline] reads 4.37 min; that for `CCC(C)n1c(=O)[nH]c(C)c(Br)c1=O` (stereo unspecified) [Bromacil], 7.96 min; that for `O=C1OC(CN2CCOCC2)CN1N=Cc1ccc([N+](=O)[O-])o1` (stereo unspecified) [Furaltadone], 2.64 min.
As to `Cc1nnc(-c2ccccc2)c(=O)n1N` [Metamitron], the LC retention time was 4.51 min.
The result for `CCn1cc(C(=O)O)c(=O)c2ccc(C)nc21` [Nalidixic acid] reads 7.99 min.
Consider `CCCOCC(=Nc1ccc(Cl)cc1C(F)(F)F)n1ccnc1` [Triflumizole], for which the LC retention time was 12.7 min.
The result for `CCC(C)C1OC2(C=CC1C)CC1CC(CC=C(C)C(OC3CC(OC)C(OC4CC(OC)C(O)C(C)O4)C(C)O3)C(C)C=CC=C3COC4C(O)C(C)=CC(C(=O)O1)C34O)O2` (stereo unspecified) [Abamectin B1a] reads 13.5 min.
The result for `CCCCCCCCn1sccc1=O` [Octhilinone (2-Octyl-4-isothiazoline-3-one)] reads 11 min; that for `CCCSP(=S)(OCC)Oc1ccc(SC)cc1` (stereo unspecified) [Sulprofos], 14.2 min; that for `COc1cc(OC)nc(NC(=O)NS(=O)(=O)c2ncccc2C(F)(F)F)n1` [Flazasulfuron], 7.14 min.
Regarding `CCC(C(=O)O)C1CCC(C)C(C(C)C(O)C(C)C(=O)C(CC)C2OC3(C=CC(O)C4(CCC(C)(C5CCC(O)(CC)C(C)O5)O4)O3)C(C)CC2C)O1` (stereo unspecified) [Salinomycin], the LC retention time was 15.9 min.
The result for `CC1=NNC(=O)N(N=Cc2cccnc2)C1` [Pymetrozine] reads 2.25 min; that for `CCOP(=S)(Oc1ccc([N+](=O)[O-])cc1)c1ccccc1` (stereo unspecified) [EPN], 12.2 min.
In the case of `CC1CCCCC1NC(=O)Nc1ccccc1` (stereo unspecified) [Siduron A], the LC retention time is 9.88 min.
With `O=C(Nc1ccccc1-c1ccc(Cl)cc1)c1cccnc1Cl` [Boscalid], the LC retention time is 10.7 min.
Turning to `O=C(OC1CC2CCC(N2)C1C(=O)O)c1ccccc1` (stereo unspecified) [Norbenzoylecgonine], the LC retention time was 5.1 min.
For the compound `CC(C)(SC(=O)N1CCCCC1)c1ccccc1` [Dimepiperate], the LC retention time was 12.3 min.
The result for `CC(C)=CC1C(C(=O)OCN2C(=O)C3=C(CCCC3)C2=O)C1(C)C` (stereo unspecified) [Tetramethrin] reads 12.8 min; that for `CC(C(=O)O)c1cccc(C(=O)c2ccccc2)c1` (stereo unspecified) [Ketoprofen], 10.3 min.
